In this test the target is T1, purified Na,K-ATPase from lamb kidney (α1) (Ovis aries, UniProt P04074).
T1 construct: gene ATP1A1; native enzyme purified from lamb kidney (gift of W. Ball); with Sodium/potassium-transporting ATPase subunit beta-1
The test is described as follows: coupled pyruvate kinase/lactate dehydrogenase ATPase assay, NADH absorbance at […] nm, Hill fit. In kind it is biochemical. As to conditions: inhibition; 3 h incubation in K+-free solution; 5 mM ATP, 100 mM NaCl, 10 mM MgCl2; pH 7.3; 37 °C.

With `C[C@@H]1O[C@@H](O[C@H]2C[C@@H](O)[C@]3(CO)[C@H]4[C@H](O)C[C@]5(C)[C@@H](C6=CC(=O)OC6)CC[C@]5(O)[C@@H]4CC[C@]3(O)C2)[C@H](O)[C@H](O)[C@H]1O` [ouabain], the K0.5 is 157 ± 7 nM.

Source of the values: publication PMC7215781 (International Journal of Molecular Sciences, 2020).
